Assay results published in PubChem BioAssay (NCI).
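Five compound concentrations were applied to cells in 96-well plates for 48 hours; endpoints were derived by simple linear interpolation of the resulting dose-response curve. The concentration for full growth arrest is given as TGI.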

Key:
Experiment in all cases: NCI tumour cell line growth inhibition, 48 h
MALME-3M melanoma = system: MALME-3M melanoma
OVCAR-3 ovarian = system: OVCAR-3 ovarian
SF-268 CNS = system: SF-268 CNS
HS 578T breast = system: HS 578T breast
SK-OV-3 ovarian = system: SK-OV-3 ovarian
SR leukemia = system: SR leukemia
U251 CNS = system: U251 CNS
NCI-H460 lung = system: NCI-H460 lung
RPMI-8226 leukemia = system: RPMI-8226 leukemia
SK-MEL-28 melanoma = system: SK-MEL-28 melanoma
HT29 colon = system: HT29 colon
HCT-116 colon = system: HCT-116 colon
NCI-H226 lung = system: NCI-H226 lung
OVCAR-5 ovarian = system: OVCAR-5 ovarian
DU-145 prostate = system: DU-145 prostate
SW-620 colon = system: SW-620 colon
UACC-257 melanoma = system: UACC-257 melanoma
NCI-H23 lung = system: NCI-H23 lung
SNB-75 CNS = system: SNB-75 CNS
HOP-92 NSCLC = system: HOP-92 NSCLC

SMILES	TGI (MALME-3M melanoma) [µM]	TGI (OVCAR-3 ovarian) [µM]	TGI (SF-268 CNS) [µM]	TGI (HS 578T breast) [µM]	TGI (SK-OV-3 ovarian) [µM]	TGI (SR leukemia) [µM]	TGI (U251 CNS) [µM]	TGI (NCI-H460 lung) [µM]	TGI (RPMI-8226 leukemia) [µM]	TGI (SK-MEL-28 melanoma) [µM]	TGI (HT29 colon) [µM]	TGI (HCT-116 colon) [µM]	TGI (NCI-H226 lung) [µM]	TGI (OVCAR-5 ovarian) [µM]	TGI (DU-145 prostate) [µM]	TGI (SW-620 colon) [µM]	TGI (UACC-257 melanoma) [µM]	TGI (NCI-H23 lung) [µM]	TGI (SNB-75 CNS) [µM]	TGI (HOP-92 NSCLC) [µM]
C=CCCC1(CC(Sc2ccccc2)P(=O)(c2ccccc2)c2ccccc2)OCCO1 (stereo unspecified)	> 10	> 10	> 10	> 10	> 10	> 10	> 10	> 10	> 10	> 10	> 10	> 10	> 10	> 10	> 10	> 10	> 10	> 10		
CSc1cc(Cl)c(C)cc1S(=O)(=O)NC(=O)NNc1cccc(C(F)(F)F)n1	> 100	> 100	> 100	> 100	> 100	> 100	> 100	> 100		> 100	> 100	> 100	> 100	> 100	> 100	> 100			> 100	
O=c1cc(N2CCCC2)[nH]c(=O)n1-c1cccc(Cl)c1	> 100	> 100	> 100	> 100	> 100		> 100	> 100	> 100		> 100	> 100	> 100	> 100	> 100	> 100	> 100	> 100	> 100	> 100
COC(=O)Nc1nc2ccc(S(=O)(=O)SC)cc2[nH]1	25.6	> 100	> 100	> 100	43	62.8	29.9	> 100	> 100	25.3	11.1	24.5	> 100	45.1	27.1	25.2	45.5			28
COC(=O)c1cc2c(cc1Cl)Sc1nnc(Nc3ccc(C)cc3)n1S2(=O)=O	26.3	5.77	10.9	32.7	24.1	6.2	17	25.7	5.44	21.8	15.5	24.5	28.2	39.8	7.31		25.6	15.7		16.5
CCOC(=O)c1cc2c3ccn(Cc4ccccc4)c3c3c(C)[nH]oc3c2n1	> 100	> 100	> 100	> 100		> 100	> 100	> 100	> 100	> 100		> 100	> 100	> 100	> 100	> 100	> 100	> 100	> 100	
CC(=O)ONC(C(=O)C(C)(C)C)C(=O)C(C)(C)C	> 100	> 100	> 100	> 100	> 100		> 100	> 100	> 100	> 100	> 100	> 100	> 100	> 100	> 100	> 100	> 100	> 100	> 100	> 100
CC(CC[C@@]1(C)C(=O)CCC2O[C@]21C)[C@H]1C[C@@H](c2ccoc2)OC1=O (stereo partly specified)	81.3	66.1	94.6	> 100	> 100	> 100	> 100	> 100	88.7	70.8	> 100	38.4	> 100	> 100	> 100	91.8	> 100	> 100		86.9
O=c1c2ccccc2nc(Cc2nc(-c3ccc(Cl)cc3)cs2)n1-c1ccc(Cl)cc1	> 100	> 100	> 100	> 100	> 100		> 100	> 100	83.9	> 100	> 100	> 100	> 100	> 100	> 100	> 100	> 100	> 100	> 100	> 100
N#C[C@@H](c1ccccn1)c1ncccc1[N+](=O)[O-]	> 100	> 100	> 100	> 100	> 100	> 100	> 100	> 100	> 100	> 100	> 100	> 100		> 100	> 100	> 100		> 100	> 100	
CCOC(=O)Cc1nc2cc(F)c(F)cc2[nH]c1=O	> 100	> 100	> 100	> 100	> 100		> 100	> 100	> 100	> 100	> 100	> 100	> 100	> 100	> 100	> 100	> 100	> 100	> 100	> 100
CC1S/C(=N\N=C2/C(=O)Nc3ccc(Br)cc32)N(C2CCCCC2)C1=O (stereo unspecified)	31.1	10	22.3	14.4	14	39.4	7.73	18.8	> 100	23.8	53.2	6.61	18	> 100	17.6	46.3	> 100	15.6		25.4
O=C(c1cccs1)N1CCc2ccccc2C1	> 100	> 100	> 100	> 100	> 100	> 100	> 100	> 100	> 100	> 100	> 100	> 100	> 100	> 100	> 100	> 100	> 100	> 100		> 100
